The subject of test [1] is portal vein isolated from rat. The test can be described thus: Test 1: Inhibition of the contraction induced by noradrenaline in portal vein isolated from rat. Type of test: cell-based. The note with it: contraction induced by noradrenaline (3µM), compounds incubated for 30 minutes, 50% inhibition versus the basal response, read-out: IC₅₀. Here is the method: Test 1: Inhibition of the contraction induced by noradrenaline in portal vein isolated from rat.
Portal vein was extracted from adult male rats (between 200 and 250 g of body weight), which had been stunned by a blow in the head. Portal vein was installed into an isolated organ bath (Letica) containing a physiological saline solution (Hamilton et al., Br. J. Pharmacol., 1986, 88, 103-111) at 37 °C and a gas bubbler (5% CO₂ and 95% O₂). Contractions were induced by noradrenaline (3µM) and were reverted after thoroughly washing with physiological saline solution. Portal vein contraction was measured with an isometric force transducer and with an initial tension of 1 g. After two contractions with noradrenaline, performed in order to measure the tissue's basal response, the tested compounds were incubated for 30 minutes and a new contraction was induced. The concentration that produces a 50% inhibition (IC₅₀) versus the basal response was calculated.

The subject of test [2] is Spontaneously hypertense rats. In words: Test 2: Lowering of the arterial pressure in conscious hypertense rats. In kind it is in vivo, rat. The settings on record: dose which produces a decrease of 30 mm Hg of the systolic arterial pressure, 3 doses and 3 animals per dose; for ED (30 mmHg decrease): Rattus norvegicus, po, read-out: ED₃₀; for ED₃₀: p.o. On the procedure: Test 2: Lowering of the arterial pressure in conscious hypertense rats.
Spontaneously hypertense rats (between 200 and 250 g of body weight) of more than 8 weeks of age have been used. Diastolic and systolic arterial pressure of the rat was measured at the caudal artery using a special sphygnomanometer (Letica 5007 and 5007/4) attached to the animal's tail. To ensure rapid and reliable data, animals were placed in a heating plate at 37°C, with the aim to produce a vasodilatation that ensured a better fixation of the rat tail to the transducer chamber. During the experiment, rats are conscious and fixed to a clamp. The tested products were administered orally. Arterial pressure was measured every 30 minutes and 10 minutes before the administration of the tested compound. The ED₃₀ (dose which produces a decrease of 30 mm Hg of the systolic arterial pressure) was calculated for each compound, using 3 doses and 3 animals per dose.

For test [3], the system named is trachea isolated from guinea pig. In words: Test 3: Direct relaxation of the trachea isolated from guinea pig. Type of test: cell-based. The note with it: Cavia porcellus, 50% of the maximum relaxation (relaxation induced by isoproterenol at 1x10⁻⁶ M), cumulative addition, read-out: EC₅₀. Here is the method:
Test 3 -Direct relaxation of the trachea isolated from guinea pig.
This test was performed according to the experimental model described by Emmerson, J. and Mackay, D. (J. Pharm. Pharmacol.,1979,31, 798). Tracheas were extracted from male guinea pigs of 400 g of body weight, which had been stunned by a blow in the head. Then, tracheas were cut in zigzag and placed into an isolated organ bath (Letica) containing Krebs-Henseleit solution at 37°C and were bubbled with carbogen (95% O₂ and 5% CO₂). The relaxation of the trachea was measured using an isometric force transducer. The basal tension was 0.5 g. The tested compounds were accumulatively added to the bath and the effective concentration which produces a 50% of the maximum relaxation (EC₅₀) was calculated.

Read-outs that look alike come from different tables or passages of the source. Bounds are passed on as bounds.

Consider `CC1(C)Oc2ccc(C#N)cc2[C@@H](NC(=O)[C@@H]2CCCN2C(=O)Oc2ccccc2)[C@@H]1O` (mixture of isomers) [Compound 34, Trans 3,4-dihydro-2,2-dimethyl-3-hydroxy-4-[(2S)-1-phenoxycarbonyl-2-pyrrolidinylcarbonylamino]-2H-1-benzopyran-6-carbonitrile], for which, in test [1] (Rattus norvegicus, 0.5 h), the IC50 is 2500 nM. Further, the ED (30 mmHg decrease) in test [2] came out at 3 mg/kg. Further, the EC50 in test [3] amounted to 2500 nM.

Regarding `CC1(C)Oc2ccc(C#N)cc2[C@@H](NC(=O)[C@@H]2CCCN2C(=O)OCc2ccccc2)[C@@H]1O` (mixture of isomers) [Compound 35, Trans 3,4-dihydro-2,2-dimethyl-3-hydroxy-4-[(2S)-1-benzyloxycarbonyl-2-pyrrolidinylcarbonylamino]-2H-1-benzopyran-6-carbonitrile], the ED (30 mmHg decrease) in test [2] was 0.05 mg/kg. Also, the EC50 in test [3] was found to be 900 nM.

`COc1cccc(COC(=O)N2CCC[C@H]2C(=O)N[C@@H]2c3cc(C#N)ccc3OC(C)(C)[C@H]2O)c1` (mixture of isomers) [Compound 58, Trans 3,4-dihydro-2,2-dimethyl-3-hydroxy-4-[(2S)-1-[(3-methoxyphenyl)methyloxycarbonyl]-2-pyrrolidinylcarbonylamino)-2H-1-benzopyran-6-carbonitrile]: the IC50 in test [1] (Rattus norvegicus, 0.5 h) is 500 nM. Further, in test [2], the ED (30 mmHg decrease) was less than 1 mg/kg.

On to `CC1(C)Oc2ccc(C#N)cc2[C@@H](NC(=O)[C@@H]2CCCN2C(=O)OCc2cccc(Cl)c2)[C@@H]1O` (mixture of isomers) [Compound 60, Trans 3,4-dihydro-2,2-dimethyl-3-hydroxy-4-[(2S)-1-[(3-chlorophenyl)methyloxycarbonyl]-2-pyrrolidinylcarbonylamino)-2H-1-benzopyran-6-carbonitrile], for which the IC50 in test [1] (Rattus norvegicus, 0.5 h) was found to be 200 nM. For the same compound, the ED (30 mmHg decrease) in test [2] is less than 0.5 mg/kg. Further, the EC50 in test [3] was 100 nM.

For `CC1(C)Oc2ccc(C#N)cc2[C@@H](NC(=S)N2CCCC2)[C@@H]1O` (relative stereo) [Compound 1, Trans 3,4-dihydro-2,2-dimethyl-3-hydroxy-4-(1-pyrrolidinylthiocarbonylamino)-2H-1-benzopyran-6-carbonitrile], the IC50 in test [1] (Rattus norvegicus, 0.5 h) came out at 3100 nM. In test [2], the ED (30 mmHg decrease) was more than 3 mg/kg.

For `CC1(C)Oc2ccc(C#N)cc2[C@@H](NC(=S)N2CCCCC2)[C@@H]1O` (relative stereo) [Compound 3, Trans 3,4-dihydro-2,2-dimethyl-3-hydroxy-4-(1-piperidinylthiocarbonylamino)-2H-1-benzopyran-6-carbonitrile], in test [1] (Rattus norvegicus, 0.5 h), the IC50 came out at 4200 nM. Also, the ED (30 mmHg decrease) in test [2] was determined as 0.5 mg/kg. Besides, the EC50 in test [3] stood at 800 nM.

Take `CN1CCN(C(=S)N[C@@H]2c3cc(C#N)ccc3OC(C)(C)[C@H]2O)CC1` (relative stereo) [Compound 7, Trans 3,4-dihydro-2,2-dimethyl-3-hydroxy-4-(4-methyl-1-piperazinylthiocarbonylamino)-2H-1-benzopyran-6-carbonitrile]: the IC50 in test [1] (Rattus norvegicus, 0.5 h) was 5300 nM. The ED (30 mmHg decrease) in test [2] is 0.17 mg/kg. Besides, the EC50 in test [3] was found to be 1300 nM.

As for `CC(C)(C)OC(=O)N1CCCCC1C(=O)N[C@@H]1c2cc(C#N)ccc2OC(C)(C)[C@H]1O` (relative stereo) [Compound 13, Trans 3,4-dihydro-2,2-dimethyl-3-hydroxy-4-(1-tert-butoxycarbonyl-2-piperidinylcarbonylamino)-2H-1-benzopyran-6-carbonitrile], the IC50 in test [1] (Rattus norvegicus, 0.5 h) was 31000 nM. The ED (30 mmHg decrease) in test [2] amounted to 0.18 mg/kg. Moreover, the EC50 in test [3] amounted to 6000 nM.

Take `CC1(C)Oc2ccc(C#N)cc2[C@@H](NC(=O)C2CCCCN2C(=O)Oc2ccccc2)[C@@H]1O` (relative stereo) [Compound 18, Trans 3,4-dihydro-2,2-dimethyl-3-hydroxy-4-(1-phenyloxycarbonyl-2-piperidinylcarbonylamino)-2H-1-benzopyran-6-carbonitrile]: the IC50 in test [1] (Rattus norvegicus, 0.5 h) turned out to be 800 nM. For the same compound, in test [2], the ED (30 mmHg decrease) came to 0.7 mg/kg. The EC50 in test [3] came out at 1000 nM.

Consider `CC1(C)Oc2ccc(C#N)cc2[C@@H](NC(=O)C2CCCCN2C(=O)OCc2ccccc2)[C@@H]1O` (relative stereo) [Compound 19, Trans 3,4-dihydro-2,2-dimethyl-3-hydroxy-4-(1-benzyloxycarbonyl-2-piperidinylcarbonylamino)-2H-1-benzopyran-6-carbonitrile], for which the IC50 in test [1] (Rattus norvegicus, 0.5 h) amounted to 800 nM. In addition, the ED (30 mmHg decrease) in test [2] was found to be 0.7 mg/kg. For the same compound, the EC50 in test [3] stood at 4500 nM.

In the case of `CC1(C)Oc2ccc(C#N)cc2[C@@H](NC(=O)C2CCCCC2)[C@@H]1O` (relative stereo) [Compound 45, Trans 4-cyclohexylcarbonylamino-3,4-dihydro-2,2-dimethyl-3-hydroxy-2H-1-benzopyran-6-carbonitrile], the IC50 in test [1] (Rattus norvegicus, 0.5 h) stood at 3500 nM. Besides, the ED (30 mmHg decrease) in test [2] worked out at 0.65 mg/kg. The EC50 in test [3] worked out at 400 nM.

For the compound `CC(C)COC(=O)N1CCC[C@H]1C(=O)N[C@@H]1c2cc(C#N)ccc2OC(C)(C)[C@H]1O` (single isomer, unassigned) [33(A)], the IC50 in test [1] was more than 10000 nM. The compound also gave an ED₃₀ in test [2] of 0.3 mg/kg.

On to `CC(C)COC(=O)N1CCC[C@H]1C(=O)N[C@@H]1c2cc(C#N)ccc2OC(C)(C)[C@H]1O` (single isomer, unassigned) [33(B)], for which the IC50 in test [1] was determined as 300 nM. This compound registered an ED₃₀ in test [2] of less than 0.1 mg/kg. Moreover, in test [3], the EC50 amounted to 9100 nM.

In the case of `CC(C)(C)OC(=O)N1CCC[C@H]1C(=O)N[C@H]1c2cc(C#N)ccc2OC(C)(C)[C@@H]1O` [28(A), Trans (3R,4S)-3,4-dihydro-2,2-dimethyl-3-hydroxy-4-[(2S)-1-tert-butoxycarbonyl-2-pyrrolidinylcarbonylamino]-2H-1-benzopyran-6-carbonitrile], the IC50 in test [1] (Rattus norvegicus, 0.5 h) was more than 10000 nM.

As to `CC(C)(C)OC(=O)N1CCC[C@H]1C(=O)N[C@@H]1c2cc(C#N)ccc2OC(C)(C)[C@H]1O` [28(B), Trans (3S,4R)-3,4-dihydro-2,2-dimethyl-3-hydroxy-4-[(2S)-1-tert-butoxycarbonyl-2-pyrrolidinylcarbonylamino]-2H-1-benzopyran-6-carbonitrile], in test [1] (Rattus norvegicus, 0.5 h), the IC50 was determined as 2600 nM. Moreover, the ED₃₀ in test [2] is 1.0 mg/kg. For the same compound, the EC50 in test [3] stood at 4800 nM.

On to `CC1(C)Oc2ccc(C#N)cc2[C@H](NC(=O)[C@@H]2CCCN2C(=O)OCc2ccccc2)[C@H]1O` [35(A), Trans (3R,4S)-3,4-dihydro-2,2-dimethyl-3-hydroxy-4-[(2S)-1-benzyloxy-carbonyl-2-pyrrolidinylcarbonylamino]-2H-1-benzopyran-6-carbonitrile], for which the IC50 in test [1] (Rattus norvegicus, 0.5 h) amounted to 2400 nM.

For `CC1(C)Oc2ccc(C#N)cc2[C@@H](NC(=O)[C@@H]2CCCN2C(=O)OCc2ccccc2)[C@@H]1O` [35(B), Trans (3S,4R)-3,4-dihydro-2,2-dimethyl-3-hydroxy-4-[(2S)-1-benzyloxy-carbonyl-2-pyrrolidinylcarbonylamino]-2H-1-benzopyran-6-carbonitrile], in test [1] (Rattus norvegicus, 0.5 h), the IC50 worked out at 200 nM.

(Values after patent EP0488301A1, “New benzopyran compounds with pharmacological activity” (J. URIACH & CIA. S.A., priority 1990, dated 1992).)
